Tested on: tobacco budworm (Heliothis virescens [Fabricius])
Assay: surface-treated diet test, insecticidal activity against tobacco budworm
Type: in vivo
Design: mortality: concentration or dose not given beside the values
Details: 0.25 millimoles of candidate insecticide on the surface of the diet, second instar larvae, five-day exposure; for Percent Mortality / mortality: compared to total number of insects infested; for Percent Growth Inhibition / pest or weed control at 0.25 mmol/well: inhibition of insect weight relative to untreated controls; for mortality / pest or weed control at 0.25 mmol/well: Heliothis virescens, 120 h; for mortality: read-out: Percent Mortality; for pest or weed control at 0.25 mmol/well: read-out: Percent Growth Inhibition
Summary of the method: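 Wheat germ artificial diet surface-treated with compound from 50 mM DMSO stock diluted 1:7 in 1:1 water/acetone (0.25 millimolar on diet), or lower-rate dilutions; DMSO-only controls. One second-instar larva per well, 25° C, 60% RH, 14 h light, five days; percent weight inhibition versus untreated and percent mortality scored.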

Row | SMILES | Percent Mortality [%] | Percent Growth Inhibition [%] | mortality [%] | pest or weed control at 0.25 mmol/well [%]
1 | O=C([O-])C12CC3CC(CC(C3)C1)C2.OC1(C(c2ccc(OC(F)(F)F)cc2)c2ccc(OC(F)(F)F)cc2)CC[N+](O)(Cc2ccc(Oc3ccccn3)cc2)CC1 (centres unmarked) [Compound 511] | 100 | 100 |  | 
2 | CCOC(OCC)c1ccc(CN2CCC(O)(C(c3ccc(OC(F)(F)F)cc3)c3ccc(OC(F)(F)F)cc3)CC2)cc1 [Compound 273] | 100 | 100 |  | 
3 | OC1(C(c2ccc(OC(F)(F)F)cc2)c2ccc(OC(F)(F)F)cc2)CCN(CCCOc2ccc(Cl)cc2)CC1 [Compound 473] | 100 | 100 |  | 
4 | Cc1ccc(Oc2ccc(C[N+]3([O-])CCC(O)(C(c4ccc(OC(F)(F)F)cc4)c4ccc(OC(F)(F)F)cc4)CC3)cc2)nn1 (centres unmarked) [Compound 413] | 100 | 100 |  | 
5 | [O-][N+]1(Cc2ccc(Oc3ccccn3)cc2)CCC(O)(C(c2ccc(OC(F)F)cc2)c2ccc(OC(F)(F)F)cc2)CC1 (centres unmarked) [Compound 347] | 100 | 100 |  | 
6 | [O-][N+]1(Cc2ccc(Oc3ccccn3)cc2)CCC(O)(C(c2ccc(OC(F)(F)F)cc2)c2ccc(C(F)(F)F)cc2)CC1 (centres unmarked) [Compound 343] | 100 | 100 |  | 
7 | Cn1nnc(-c2ccc(CN3CCC(O)(C(O)(c4ccc(OC(F)(F)F)cc4)c4ccc(OC(F)(F)F)cc4)CC3)cc2)n1 [Compound 93, 4-{bis[4-(trifluoromethoxy)phenyl]hydroxymethyl}-1-{[4-(2-methyl(1,2,3,4-tetrazol-5-yl))phenyl]methyl}piperidin-4-ol] |  |  | 100 | 100
8 | [O-][N+]1(Cc2ccc(Oc3ccccn3)cc2)CCC(O)(C(c2ccc(OC(F)(F)F)cc2)c2ccccc2Cl)CC1 (centres unmarked) [Compound 459] | 100 | 100 |  | 
9 | OC1(C(c2ccc(OC(F)F)cc2)c2ccc(OC(F)(F)F)cc2)CCN(Cc2ccc(Oc3ccccn3)cc2)CC1 (racemic) [Compound 269] | 100 | 100 |  | 
10 | CCCOC(=O)Nc1ccc(CN2CCC(O)(C(c3ccc(C(F)(F)F)cc3)c3ccc(C(F)(F)F)cc3)CC2)cc1 [Compound 313] | 100 | 100 |  | 
11 | [O-][N+]1(Cc2ccc(Oc3ncccc3Cl)cc2)CCC(O)(C(c2ccc(OC(F)(F)F)cc2)c2ccc(OC(F)(F)F)cc2)CC1 (centres unmarked) [Compound 399] | 100 | 100 |  | 
12 | CCON=Cc1ccc(C[N+]2([O-])CCC(O)(C(c3ccc(Cl)cc3)c3ccc(OC(F)(F)F)cc3)CC2)cc1 (centres unmarked) [Compound 405] | 100 | 100 |  | 
13 | CC1(C)[C@@H]2CCC1(CS(=O)(=O)[O-])C(=O)C2.CCON=Cc1ccc(C[N+]2(O)CCC(O)(C(c3ccc(OC(F)(F)F)cc3)c3ccc(OC(F)(F)F)cc3)CC2)cc1 (centres unmarked) [Compound 507] | 100 | 100 |  | 
14 | [O-][N+]1(Cc2ccc(Oc3ccccn3)cc2)CCC(O)(C(c2ccc(C(F)(F)F)cc2)c2ccc(C(F)(F)F)cc2)CC1 (centres unmarked) [Compound 111] | 100 | 100 |  | 
15 | O=C(O)CC(O)(CC(=O)O)C(=O)[O-].OC1(C(c2ccc(OC(F)(F)F)cc2)c2ccc(OC(F)(F)F)cc2)CC[N+](O)(Cc2ccc(Oc3ccc(Cl)nn3)cc2)CC1 (centres unmarked) [Compound 492] | 100 | 100 |  | 
16 | COCCOc1ccc(CN2CCC(O)(C(c3ccc(OC(F)(F)F)cc3)c3ccc(OC(F)(F)F)cc3)CC2)cc1 [Compound 308, 4-{bis[4-(trifluoromethoxy)phenyl]methyl}-1-{[4-(2-methoxyethoxy)phenyl]methyl}piperidin-4-ol] |  |  | 100 | 100
17 | OC1(C(c2ccc(OC(F)(F)F)cc2)c2cccc(Cl)c2Cl)CCN(Cc2ccc(Oc3ccccn3)cc2)CC1 (centres unmarked) [Compound 438] | 100 | 100 |  | 
18 | CCON=Cc1ccc(C[N+]2(O)CCC(O)(C(c3ccc(OC(F)(F)F)cc3)c3ccc(OC(F)(F)F)cc3)CC2)cc1.O=S(=O)([O-])C(F)(F)C(F)(F)C(F)(F)C(F)(F)F (centres unmarked) [Compound 487] | 100 | 100 |  | 
19 | CCn1nnc(-c2ccc(CN3CCC(O)(C(c4ccc(Cl)cc4)c4ccc(Cl)cc4)CC3)cc2)n1 [Compound 23] | 100 | 100 |  | 
20 | OC1(C(c2ccc(Br)cc2)c2ccc(OC(F)(F)F)cc2)CCN(Cc2ccc(Oc3ccccn3)cc2)CC1 (centres unmarked) [Compound 261] | 100 | 100 |  | 
21 | ON=Cc1ccc(CN2CCC(O)(C(c3ccc(C(F)(F)F)cc3)c3ccc(C(F)(F)F)cc3)CC2)cc1 [Compound 270] | 100 | 100 |  | 
22 | Cc1cc(C(c2ccc(OC(F)(F)F)cc2)C2(O)CC[N+]([O-])(Cc3ccc(Oc4ccccn4)cc3)CC2)ccc1Cl (centres unmarked) [Compound 462] | 100 | 100 |  | 

Row | SMILES | Percent Mortality [%] | Percent Growth Inhibition [%] | mortality [%] | pest or weed control at 0.25 mmol/well [%]
23 | OC1(C(c2ccc(OC(F)(F)F)cc2)c2ccc(OC(F)(F)F)cc2)CC[N+](O)(Cc2ccc(Oc3ccccn3)cc2)CC1.[Cl-] (centres unmarked) [Compound 497] | 100 | 100 |  | 
24 | CC(C)(C)c1ccc(C(c2ccc(OC(F)(F)F)cc2)C2(O)CCN(Cc3ccc(Oc4ccccn4)cc3)CC2)cc1 (centres unmarked) [Compound 257] | 100 | 100 |  | 
25 | CCn1nnc(-c2ccc(CN3CCC(O)(C(c4cccc(Cl)c4)c4cccc(Cl)c4)CC3)cc2)n1 [Compound 24] | 0 | 98 |  | 
26 | OC1(C(c2ccc(OC(F)(F)F)cc2)c2ccc(OC(F)(F)F)cc2)CCN(Cc2ccc(OCC3CC3)cc2)CC1 [Compound 315] | 100 | 100 |  | 
27 | CC(C)=CCCC(C)CC(=O)[O-].OC1(C(c2ccc(OC(F)(F)F)cc2)c2ccc(OC(F)(F)F)cc2)CC[N+](O)(Cc2ccc(Oc3ccccn3)cc2)CC1 (centres unmarked) [Compound 509] | 100 | 100 |  | 
28 | CCON=Cc1ccc(C[N+]2(O)CCC(O)(C(c3ccc(OC(F)(F)F)cc3)c3ccc(OC(F)(F)F)cc3)CC2)cc1.O=S(=O)([O-])C(F)(F)C(F)(F)C(F)(F)C(F)(F)C(F)(F)C(F)(F)C(F)(F)C(F)(F)F (centres unmarked) [Compound 495] | 100 | 100 |  | 
29 | OC1(C(c2cccc(F)c2)c2cccc(F)c2)CCN(Cc2ccc(Oc3ncccn3)cc2)CC1 [Compound 8] | 0 | 41 |  | 
30 | O=C(NC1CCCC1)Oc1ccc(CN2CCC(O)(C(c3ccc(OC(F)(F)F)cc3)c3ccc(OC(F)(F)F)cc3)CC2)cc1 [Compound 320] | 100 | 100 |  | 
31 | [O-][N+]1(Cc2ccc(Oc3ccccn3)cc2)CCC(O)(C(c2ccc(OC(F)(F)F)cc2)c2cc(Cl)ccc2Cl)CC1 (centres unmarked) [Compound 460] | 100 | 100 |  | 
32 | [O-][N+]1(Cc2ccc(OCc3ccccc3)cc2)CCC(O)(C(c2ccc(C(F)(F)F)cc2)c2ccc(C(F)(F)F)cc2)CC1 (centres unmarked) [Compound 393] | 100 | 100 |  | 
33 | [O-][N+]1(Cc2ccc(Oc3ccccc3Cl)cc2)CCC(O)(C(c2ccc(OC(F)(F)F)cc2)c2ccc(OC(F)(F)F)cc2)CC1 (centres unmarked) [Compound 375] | 100 | 100 |  | 
34 | [O-][N+]1(Cc2ccc(-c3ncccc3Cl)cc2)CCC(O)(C(c2ccc(OC(F)(F)F)cc2)c2ccc(OC(F)(F)F)cc2)CC1 (centres unmarked) [Compound 411] | 100 | 100 |  | 
35 | FC(F)(F)c1ccc(C(c2ccc(C(F)(F)F)cc2)C2(F)CCN(Cc3ccc(Oc4ccccn4)cc3)CC2)cc1 [Compound 193] | 100 | 100 |  | 
36 | OC(c1ccc(CN2CCC(O)(C(c3ccc(OC(F)(F)F)cc3)c3ccc(OC(F)(F)F)cc3)CC2)cc1)c1ccccn1 (racemic) [Compound 282] | 100 | 100 |  | 
37 | CCON=Cc1ccc(C(c2ccc(OC(F)(F)F)cc2)C2(O)CCN(Cc3ccc(Oc4ccccn4)cc3)CC2)cc1 (centres unmarked) [Compound 440] | 100 | 100 |  | 
38 | O=C(Nc1ccc(CN2CCC(O)(C(c3ccc(C(F)(F)F)cc3)c3ccc(C(F)(F)F)cc3)CC2)cc1)OCC1CC1 [Compound 319] | 100 | 100 |  | 
39 | OC1(C(c2ccc(OC(F)(F)F)cc2)c2ccc(OC(F)(F)F)cc2)CCN(CCc2ccc(Cl)cc2)CC1 [Compound 474] | 83 | 100 |  | 
40 | COCCON=Cc1ccc(C[N+]2([O-])CCC(O)(C(c3ccc(OC(F)(F)F)cc3)c3ccc(OC(F)(F)F)cc3)CC2)cc1 (centres unmarked) [Compound 344] | 100 | 100 |  | 
41 | [O-][N+]1(Cc2ccc(Oc3ccc(Cl)nn3)cc2)CCC(O)(C(c2ccc(OC(F)(F)F)cc2)c2ccc(OC(F)(F)F)cc2)CC1 (centres unmarked) [Compound 412] | 100 | 100 |  | 
42 | CON=C(Cl)c1ccc(C[N+]2(O)CCC(O)(C(c3ccc(OC(F)(F)F)cc3)c3ccc(OC(F)(F)F)cc3)CC2)cc1.O=C(O)CC(O)(CC(=O)O)C(=O)[O-] (centres unmarked) [Compound 501] | 100 | 100 |  | 
43 | OC1(C(c2ccc(C(F)(F)F)cc2)c2ccc(Cl)cc2Cl)CCN(Cc2ccc(Oc3ncccn3)cc2)CC1 (centres unmarked) [Compound 15] | 100 | 100 |  | 
